Test results reported in article PMC7242285, “JNJ-4178 (adafosbuvir, odalasvir, and simeprevir) in Japanese patients with chronic hepatitis C virus genotype 1 or 2 infection with or without compensated cirrhosis: the Phase IIa OMEGA-3 study” (Journal of Gastroenterology, 2020).
Read-outs that look alike come from different tables or passages of the source. Each block holds one compound with its values, some of them ahead of it.

Legend:
[1] = OMEGA-3: plasma pharmacokinetics (sparse sampling and Week 4 intensive sub-study); format: in vivo, human (Japanese patients)
Experimental: Blood samples for the assessment of the plasma pharmacokinetics of adafosbuvir (and its metabolites ALS-022399 and ALS-022227), odalasvir, and simeprevir were collected in all patients pre-dose, between 2 and 4 h post-dose, and between 4 and 6 h post-dose at Weeks 2, 4, 6, and 8 (Cohort 2 only) and EOT (Weeks 8 or 12). An additional plasma sample was taken at any time during the Week-12 follow-up visit for measurement of odalasvir only.
Additional blood samples were also obtained at Week 4 in a subgroup of patients (planned: ≥ 6 patients per cohort) who consented to intensive pharmacokinetic sampling (pharmacokinetic sub-study). Blood samples for adafosbuvir (and its metabolites ALS-022399 and ALS-022227), odalasvir, and simeprevir plasma concentrations were collected pre-dose and at 1, 2, 3, 4, 6, 8, 10, 12, and 24 h post-dose.
Plasma concentrations of adafosbuvir, ALS-022399, ALS-022227, simeprevir, and odalasvir were determined using validated liquid chromatography–mass spectrometry methods. The LLOQ for adafosbuvir and odalasvir was 1.00 ng/mL, for ALS-022399 was 2.00 ng/mL, for ALS-022227 was 5.00 ng/mL, and for simeprevir was 20.0 ng/mL.
Descriptive statistics for plasma concentrations of adafosbuvir (and its metabolites), odalasvir, and simeprevir were calculated at each sampling time point. Pharmacokinetic parameters were derived by non-compartmental pharmacokinetic analysis of adafosbuvir (and its metabolites), odalasvir, and simeprevir in the pharmacokinetic sub-study using actual sampling time points and plasma concentrations obtained during intensive sampling at Week 4. Graphs of the mean plasma concentration–time profiles were produced. An exploratory graphical pharmacokinetic/pharmacodynamic analysis was performed by means of scatter plots of pharmacodynamic parameters (individual PR interval [mean of the triplicate ECG measurements] and change from baseline in PR interval [Day 1 was baseline]) versus odalasvir plasma concentrations.

[2] = system: HCV GT3; parameters: method as in PMID 22326470; conditions: cited from earlier work
[3] = system: CYP1A2; parameters: method as in PMID 26453968; conditions: cited from earlier work
[4] = OMEGA-3 Phase IIa study: adverse events and laboratory safety; format: in vivo, human (Japanese patients); conditions: given as part of JNJ-4178
Description: The study comprised a 6-week screening phase, an 8-week (Cohort 1: patients with no cirrhosis) or 12-week (Cohort 2: patients with compensated cirrhosis) open-label treatment phase, and a 24-week post-treatment follow-up period. Given that patients with HCV and compensated cirrhosis potentially have a higher safety risk than patients without compensated cirrhosis, dosing of Cohort 2 was only initiated after all safety data had been reviewed up to Week 4 for the first six patients in Cohort 1 by an independent Data Review Committee (Fig. 1). This study was conducted in accordance with the ethical principles that have their origin in the Declaration of Helsinki and that are consistent with Good Clinical Practices and applicable regulatory requirements. The study was approved by the relevant Institutional Review Board at each study center. All patients provided written, informed consent to participate.
Study drugs were administered orally with food at approximately the same time in the morning, each day.
(§1) The primary endpoint was safety, including but not limited to AEs, physical examination, vital signs, 12-lead ECGs, echocardiograms, and clinical laboratory results.
(§2) AEs were reported throughout the study from the time that informed consent to participate was received until completion of the last visit. Complete physical examination, vital signs assessments, and blood and urine sampling for clinical laboratory assessments (including hematological, serum chemistry, liver function, and urinalysis tests) were performed at screening and throughout the study. Triplicate ECGs and echocardiography were also performed at screening and during the study.
The safety analysis was performed on the Safety Set (all patients who received at least one dose of study drug). Safety data were analyzed descriptively. AEs were coded using the Medical Dictionary for Regulatory Activities (version 20.0). Laboratory abnormalities were assessed according to the World Health Organization Toxicity Grading Scale.

[5] = system: HCV GT1, GT2, GT4, GT5, and GT6; parameters: method as in PMID 22326470; conditions: cited from earlier work
[6] = system: CYP3A; conditions: cited from earlier work
[7] = system: HCV GTs 1–6; parameters: method as in doi:10.1016/S0168-8278(17)31470-8, PMID 30070722, PMID 30325939; conditions: cited from earlier work
[8] = OMEGA-3: ECG and echocardiography; format: in vivo, human (Japanese patients); conditions: graphical evaluation
Description: as §1, §2
Descriptive statistics for plasma concentrations of adafosbuvir (and its metabolites), odalasvir, and simeprevir were calculated at each sampling time point. Pharmacokinetic parameters were derived by non-compartmental pharmacokinetic analysis of adafosbuvir (and its metabolites), odalasvir, and simeprevir in the pharmacokinetic sub-study using actual sampling time points and plasma concentrations obtained during intensive sampling at Week 4. Graphs of the mean plasma concentration–time profiles were produced. […]

[9] = system: HCV GT1, GT2, GT4, GT5, and GT6; parameters: method as in PMID 30693573, doi:10.1016/S0168-8278(12)60857-5; conditions: cited from earlier work
[10] = parameters: method as in PMID 29736243; conditions: single-dose pharmacokinetic studies (data on file) ref 24; cited from earlier work
[11] = system: HCV GT3; parameters: method as in PMID 30693573; conditions: HCV GT3 (data on file); cited from earlier work
[12] = Cohort 1: no cirrhosis (N = 22), 8 weeks
[13] = Cohort 2: compensated cirrhosis (N = 11), 12 weeks

AUC24h, mean (SD) ([1]; human, in vivo): 6688 (3116) ng.h/mL
Cmax, mean (SD) ([1]; human, in vivo): 974 (554) ng/mL
Structure (SMILES): C[C@]1(O)[C@H](n2ccc(=O)[nH]c2=O)O[C@](F)(CO)[C@H]1O [ALS-022227]
Steady state judged from Ctrough levels ([1]; in vivo): steady-state exposure had been reached by Week 2

Ctrough, max (between-patient variability) ([1]; human, in vivo): 6090 ng/mL
Ctrough, min (between-patient variability) ([1]; human, in vivo): 92.2 ng/mL
AUC(0-t) ([1]; human, in vivo, AUC24h, mean (SD)): 26900 ng·h/mL
Cmax ([1]; human, in vivo, Cmax, mean (SD)): 2200 ng/mL
Ctrough levels in Cohort 2 compared with Cohort 1 ([1]; in vivo): higher
Structure (SMILES): COc1ccc2c(O[C@@H]3C[C@H]4C(=O)N[C@]5(C(=O)NS(=O)(=O)C6CC6)C[C@H]5/C=C\CCCCN(C)C(=O)[C@@H]4C3)cc(-c3nc(C(C)C)cs3)nc2c1C [simeprevir]
Antiviral activity in infected patients [2]: no antiviral activity
Inhibition of CYP1A2 [3]: mild, but not clinically relevant, inhibitor
Steady state judged from Ctrough levels ([1]; human, in vivo): steady-state exposure had been reached by Week 2
Treatment-related AE at least possibly related to the named drug [4, 12]: 6 (27.3) n (%)
Treatment-related AE at least possibly related to the named drug [4, 13]: 2 (18.2) n (%)
Treatment-related AE at least possibly related to the named drug ([4]; Overall (N = 33)): 8 (24.2) n (%)
Antiviral activity in infected patients [5]: demonstrated antiviral activity
Metabolism [6]: metabolized by cytochrome P450 (CYP) 3A
Inhibition of CYP3A ([6]; intestinal (not hepatic) CYP3A): mild inhibitor

Structure (SMILES): CC(C)OC(=O)[C@H](C)N[P@](=O)(OC[C@@]1(F)O[C@@H](n2ccc(=O)[nH]c2=O)[C@](C)(O)[C@@H]1O)Oc1ccccc1 [adafosbuvir]
Antiviral activity [7]: potent antiviral activity
Plasma trough concentration (Ctrough) ([1]; all visits, both patient cohorts, LLOQ 1.00 ng/mL adafosbuvir, 2.00 ng/mL ALS-022399): below the limit of quantification
AUC(0-t) ([1]; human, in vivo, plasma, Week 4, intensive sampling, Cohort 2 (n=2), first value listed, read-out: AUC24h, individual value): 3020 ng·h/mL
Cmax ([1]; human, in vivo, plasma, Week 4, intensive sampling, Cohort 2 (n=2), first value listed, read-out: Cmax, individual value): 964 ng/mL
AUC(0-t) ([1]; human, in vivo, plasma, Week 4, intensive sampling, Cohort 2 (n=2), second value listed, read-out: AUC24h, individual value): 3030 ng·h/mL
Cmax ([1]; human, in vivo, plasma, Week 4, intensive sampling, Cohort 2 (n=2), second value listed, read-out: Cmax, individual value): 1430 ng/mL
AUC(0-t) ([1]; human, in vivo, plasma, Week 4, intensive sampling, JNJ-4178 dosing, Cohort 1: no cirrhosis (n=8), read-out: AUC24h, mean (SD)): 1660 ng·h/mL
Cmax ([1]; human, in vivo, plasma, Week 4, intensive sampling, JNJ-4178 dosing, Cohort 1: no cirrhosis (n=8), read-out: Cmax, mean (SD)): 903 ng/mL
Treatment-related AE at least possibly related to the named drug [4, 12]: 6 (27.3) n (%)
Treatment-related AE at least possibly related to the named drug [4, 13]: 3 (27.3) n (%)
Treatment-related AE at least possibly related to the named drug ([4]; Overall (N = 33)): 9 (27.3) n (%)

AUC24h, mean (SD) ([1]; human, in vivo): 6320 (1898) ng.h/mL
Cmax, mean (SD) ([1]; human, in vivo): 342 (113) ng/mL
Maximum Cmax among pharmacokinetic sub-study patients ([1]; human, in vivo): 546 ng/mL
Ctrough levels in Cohort 2 compared with Cohort 1 ([1]; in vivo): modestly lower
Highest pre-dose concentration among patients ([1]; in vivo): 474 to 889 ng/mL
Structure (SMILES): COC(=O)N[C@H](C(=O)N1[C@H](c2nc3cc(-c4cc5ccc4CCc4ccc(c(-c6ccc7[nH]c([C@@H]8C[C@@H]9CCCC[C@@H]9N8C(=O)[C@@H](NC(=O)OC)C(C)C)nc7c6)c4)CC5)ccc3[nH]2)C[C@@H]2CCCC[C@@H]21)C(C)C [odalasvir]
Relationship between PR interval (absolute and change from baseline) and plasma concentrations [8]: no apparent relationship
Potency [9]: picomolar
Steady state judged from Ctrough levels ([1]; in vivo): steady-state conditions had not entirely been reached yet at Week 4
Terminal elimination half-life [10]: approximately 250 h
Treatment-related AE at least possibly related to the named drug [4, 12]: 9 (40.9) n (%)
Treatment-related AE at least possibly related to the named drug [4, 13]: 4 (36.4) n (%)
Treatment-related AE at least possibly related to the named drug ([4]; Overall (N = 33)): 13 (39.4) n (%)
Activity [11]: nanomolar
